The record followed here is US20130137865A1 (TAISHO PHARMACEUTICAL CO., LTD., priority 2010, published 2013).

Structures are written as SMILES. pIC50: −log10 of the molar value.

For the assay, the target named is T1, rat mGlu2 receptor (Rattus norvegicus, UniProt P31421).
T1 construct: expressed in transfected cells; host or cells: CHO cells
T1 sequence (P31421 19-872): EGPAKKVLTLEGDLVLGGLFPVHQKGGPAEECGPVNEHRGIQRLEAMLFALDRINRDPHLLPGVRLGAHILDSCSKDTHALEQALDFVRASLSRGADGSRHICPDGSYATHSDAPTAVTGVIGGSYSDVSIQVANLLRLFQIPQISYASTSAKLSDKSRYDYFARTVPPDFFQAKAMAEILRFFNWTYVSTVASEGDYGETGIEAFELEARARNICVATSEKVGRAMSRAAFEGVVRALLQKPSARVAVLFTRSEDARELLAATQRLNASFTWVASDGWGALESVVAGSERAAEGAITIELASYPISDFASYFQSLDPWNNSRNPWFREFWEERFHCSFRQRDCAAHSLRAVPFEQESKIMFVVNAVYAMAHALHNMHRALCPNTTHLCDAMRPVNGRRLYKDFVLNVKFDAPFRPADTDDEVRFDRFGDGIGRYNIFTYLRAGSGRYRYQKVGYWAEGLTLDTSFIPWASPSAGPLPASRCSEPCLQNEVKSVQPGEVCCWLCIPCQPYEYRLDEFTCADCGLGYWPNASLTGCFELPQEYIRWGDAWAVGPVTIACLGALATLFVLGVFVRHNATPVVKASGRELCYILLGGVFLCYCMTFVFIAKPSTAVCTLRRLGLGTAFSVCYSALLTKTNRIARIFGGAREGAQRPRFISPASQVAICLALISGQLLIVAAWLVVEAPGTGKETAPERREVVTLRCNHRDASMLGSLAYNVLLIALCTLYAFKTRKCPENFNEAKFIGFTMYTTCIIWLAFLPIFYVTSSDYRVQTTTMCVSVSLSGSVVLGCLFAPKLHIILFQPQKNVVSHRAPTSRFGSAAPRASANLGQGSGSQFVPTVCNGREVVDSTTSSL
As to the kind of experiment: [35S]GTPγS binding test (1), membranes of CHO cells stably expressing rat mGlu2. Format: biochemical. Conditions: inhibition of glutamic acid (20 μM)-stimulated specific [35S]GTPγS binding. The method, then: (Preparation of Crude Membrane Fraction of CHO Cells Stably Expressing the Rat Metabotropic Glutamate Receptor (mGlu2))
CHO cells stably expressing the rat mGlu2 receptor were cultured in a 10% dialyzed fetal bovine serum-containing Dulbecco's Modified Eagle's Medium [1% proline, 50 units/mL penicillin, 50 μg/mL streptomycin, and 2 mM L-glutamine (to be added when used)] at 37° C. in 5% CO2. Confluent cells were washed with PBS(−) twice, and were then harvested with a cell scraper. Then, the cells were centrifuged at 4° C. at 1000 rpm for 5 minutes to collect. The obtained precipitate was suspended in a 20 mM HEPES buffer (pH 7.4), and then homogenized with a Teflon® homogenizer. The resultant was centrifuged at 4° C. at 48,000×g for 20 minutes to obtain a precipitate again. The obtained precipitate was washed twice by centrifugation, and was then homogenized with the above-mentioned buffer, so as to obtain a crude membrane fraction. The obtained crude membrane fraction was preserved at −80° C.
The frozen membrane fraction as prepared above was thawed when used, and it was then diluted with a binding test buffer (final concentration: 20 mM HEPES, 100 mM NaCl, 10 mM MgCl2, 8.4 μM GDP, 10 μg/mL saponin, and 0.1% BSA). The compound of the Example was added to a membrane fraction (10 μg protein/assay), and the obtained mixture was then incubated at 30° C. for 20 minutes. Thereafter, glutamic acid (final concentration: 20 μM) and [^35S]GTPγS (final concentration: 0.15 nM) were added to the reaction mixture, and then incubated at 30° C. for 1 hour. After completion of the incubation, the reaction mixture was subjected to filtration over a Whatman GF/C filter that had previously been immersed in a 20 mM HEPES buffer (pH 7.4), and the filter was then washed three times with 300 μL of ice-cold 20 mM HEPES buffer (pH 7.4). A scintillation cocktail was added to the resulting filter, and membrane-bound radioactivity was then measured with a liquid scintillation counter.
The amount of [^35S]GTPγS bound in the case of carrying out the above described reaction in the absence of glutamic acid was defined as non-specific binding. The difference between such non-specific bound and the amount of [^35S]GTPγS bound in the presence of glutamic acid was defined as specific binding. Using non-linear analysis, a concentration-inhibition curve was produced. The concentration of the compound of each Example that caused 50% inhibition (IC50 value) of specific binding was determined from each concentration-inhibition curve.
Usually pIC50 stands for the negative decadic logarithm of the IC50, by convention in mol/L. A higher pIC50 goes with a low IC50. In turn, `Cn1ncc(-c2nc(-c3cccc(S(N)(=O)=O)c3)no2)c1C#Cc1ccc(C(F)(F)F)cn1` [Example 7, 3-[5-(1-Methyl-5-{[5-(trifluoromethyl)pyridin-2-yl]ethynyl}-1H-pyrazol-4-yl)-1,2,4-oxadiazol-3-yl]benzenesulfonamide] gave a pIC50 of 7.75. The compound `Cn1ncc(-c2nc(-c3cccc(S(N)(=O)=O)c3)no2)c1CCc1ccc(C(F)(F)F)cn1` [Example 8, 3-[5-(1-Methyl-5-{2-[5-(trifluoromethyl)pyridin-2-yl]ethyl}-1H-pyrazol-4-yl)-1,2,4-oxadiazol-3-yl]benzenesulfonamide] had a pIC50 of 7.01. For `Cn1ncc(-c2nc(-c3cccc(S(N)(=O)=O)c3)no2)c1CNc1ccc(C(F)(F)F)cc1` [Example 9], the pIC50 was 7.55.

On to `Cn1ncc(-c2nc(-c3cccc(S(N)(=O)=O)c3)co2)c1CCc1ccc(C(F)(F)F)cc1` [Example 10, 3-[2-(1-Methyl-5-{2-[4-(trifluoromethyl)phenyl]ethyl}-1H-pyrazol-4-yl)-1,3-oxazol-4-yl]benzenesulfonamide], for which the pIC50 is 8.00. Then `Cn1ncc(-c2nc(-c3ccc(S(=O)(=O)O)cc3)no2)c1CCc1ccc(C(F)(F)F)cc1` [Example 15, 4-[5-(1-Methyl-5-{2-[4-(trifluoromethyl)phenyl]ethyl}-1H-pyrazol-4-yl)-1,2,4-oxadiazol-3-yl]benzenesulfonic acid], with 7.40; and `Cn1ncc(-c2nc(-c3ccc(S(N)(=O)=O)cc3)no2)c1CCc1ccc(C(F)(F)F)cc1` [Example 19, 4-[5-(1-Methyl-5-{2-[4-(trifluoromethyl)phenyl]ethyl}-1H-pyrazol-4-yl)-1,2,4-oxadiazol-3-yl]benzenesulfonamide], with 8.06.

For `Cn1ncc(-c2nc(-c3cccc(S(N)(=O)=O)c3)no2)c1N1Cc2ccc(C(F)(F)F)cc2C1` [Example 21, 3-(5-{1-Methyl-5-[5-(trifluoromethyl)-1,3-dihydro-2H-isoindol-2-yl]-1H-pyrazol-4-yl}-1,2,4-oxadiazol-3-yl)benzenesulfonamide], the pIC50 was 7.83. Compound `Cn1ncc(-c2nc(-c3cccc(S(N)(=O)=O)c3)no2)c1-c1cnn(-c2ccc(Cl)cc2)c1` [Example 25, 3-{5-[1′-(4-Chlorophenyl)-2-methyl-1′H,2H-3,4′-bipyrazol-4-yl]-1,2,4-oxadiazol-3-yl}benzenesulfonamide] showed a pIC50 of 7.56. Compound `CN(C)CCNS(=O)(=O)c1ccc(-c2noc(-c3cnn(C)c3CCc3ccc(C(F)(F)F)cc3)n2)cc1` [Example 31, N-[2-(Dimethylamino)ethyl]-4-[5-(1-methyl-5-{2-[4-(trifluoromethyl)phenyl]ethyl}-1H-pyrazol-4-yl)-1,2,4-oxadiazol-3-yl]benzenesulfonamide] showed a pIC50 of 7.66. Then `Cn1ncc(-c2nc(-c3cccc(S(N)(=O)=O)c3)no2)c1COc1ccc(C(F)(F)F)cc1` [Example 37, 3-[5-(1-Methyl-5-{[4-(trifluoromethyl)phenoxy]methyl}-1H-pyrazol-4-yl)-1,2,4-oxadiazol-3-yl]benzenesulfonamide], with 8.89. The figure for `CCn1ncc(-c2nc(-c3cccc(S(N)(=O)=O)c3)no2)c1CCc1ccc(C(F)(F)F)cc1` [Example 39, 3-[5-(1-Ethyl-5-{2-[4-(trifluoromethyl)phenyl]ethyl}-1H-pyrazol-4-yl)-1,2,4-oxadiazol-3-yl]benzenesulfonamide] is 7.92. `NS(=O)(=O)c1cccc(-c2noc(-c3cnn(CF)c3CCc3ccc(C(F)(F)F)cc3)n2)c1` [Example 41, 3-{5-[1-(Fluoromethyl)-5-{2-[4-(trifluoromethyl)phenyl]ethyl}-1H-pyrazol-4-yl]-1,2,4-oxadiazol-3-yl}benzenesulfonamide]: the pIC50 is 8.04. `Cc1ccc(OCc2c(-c3nc(-c4cccc(S(N)(=O)=O)c4)no3)cnn2C)cc1` [Example 51, 3-(5-{1-Methyl-5-[(4-methylphenoxy)methyl]-1H-pyrazol-4-yl}-1,2,4-oxadiazol-3-yl)benzenesulfonamide] had a pIC50 of 8.09.
